Key:
[1] = tested on: human embryonic stem cell line H7; assay: FACS protein expression with time following activin A treatment (Table IIB); assay type: cell-based; conditions: AA 100 ng/ml
Experimental: (§1) The level of expression of definitive endoderm markers was examined by PCR (FIGS. 1A and 1B), FACS (results summarized in Table I), and immunohistochemistry (FIGS. 2A, 2B and 2C).
(§2) Adhered cells were removed from culture plates by five-minute incubation with TrypLE™ Express solution (Invitrogen, CA). Released cells were resuspended in human embryonic stem cell culture medium and recovered by centrifugation, followed by washing and resuspending the cells in a staining buffer consisting of 2% BSA, 0.05% sodium azide in PBS (Sigma, MO). As appropriate, the cells were Fc-receptor blocked for 15 minutes using a 0.1% γ-globulin (Sigma) solution. […] Controls included appropriate isotype matched antibodies, unstained cells, and cells stained only with secondary conjugated antibody. All incubations with antibodies were performed for 30 mins at 4° C. after which the cells were washed with the staining buffer. Samples that were stained with unconjugated primary antibodies were incubated for an additional 30 mins at 4° C. with secondary conjugated PE or -APC labeled antibodies. See Table I for a list of secondary antibodies used. Washed cells were pelleted and resuspended in the staining buffer, and the cell surface molecules were identified using a FACS Array (BD Biosciences) instrument, collecting at least 10,000 events.

[2] = tested on: human embryonic stem cell line H1; assay: FACS protein expression following 5-day activin A treatment (Table IIC); assay type: cell-based; conditions: 5-day AA treatment
Experimental: as §1, §2

[3] = tested on: human embryonic stem cell line H9; assay: PCR of definitive endoderm and other lineage markers after activin A, cells on mouse embryonic fibroblasts; assay type: cell-based; conditions: 100 ng/ml activin A
Description: as §1
Cells were harvested at the time points indicated in FIGS. 3A, 3B, 3C and 3D and assayed by PCR for the expression of genes shown (FIGS. 3A, 3B, 3C, 3D, 4A, 4B, 5A and 5B).
RNA samples were purified by binding to a silica-gel membrane (Rneasy Mini Kit, Qiagen, CA) in the presence of an ethanol-containing, high-salt buffer followed by washing to remove contaminants. The RNA was further purified using a TURBO DNA-free kit (Ambion, INC), and high-quality RNA was then eluted in water. Yield and purity were assessed by A260 and A280 readings on a spectrophotometer. cDNA copies were made from purified RNA using an ABI (ABI, CA) high capacity cDNA archive kit.
Final data were expressed relative to a calibrator sample.

[4] = tested on: human embryonic stem cell line H9; assay: Formation of pancreatic endocrine cells expressing Nkx2.2 (PCR); assay type: cell-based; conditions: activin A for the first three days of culture
Experimental: Cells were continuously cultured for another 3 to 5 days in basal medium with retinoic acid at 1 μM, alone or with bFGF. RNA samples were harvested from cells at various time points along this process to help evaluate the directed differentiation of the cells. Furthermore, culture medium and factors were regularly removed and replenished throughout the differentiation protocol.

[5] = tested on: H9P49 and H1P46 embryonic stem cells; assay: Definitive endoderm on MATRIGEL: effective dose of activin A with GSK-3B inhibitor or Wnt-3A; assay type: cell-based, human
Description: FIGS. 31A, 31B, 31C and 31D is for H9P49 cells and FIGS. 31E and 31F is for H1P46 cells.

H9 cultures = assay: Definitive endoderm on varying concentrations of […] with Wnt-3a (real-time PCR); assay type: cell-based, human; conditions: low serum, 100 ng/ml activin A and 20 ng/ml Wnt-3a
Experimental: H9 cells were cultured on plates coated with regular […] at a 1:60 to 1:10 dilution. The plates were coated with […] for 1 hr at room temperature.

Activin A: a member of the TGFβ superfamily; growth factor (R&D Systems) used to differentiate human embryonic stem cells
CXCR4+ C-Kit+ cells (FACS) ([1]; 1-day): 2.97%
CXCR4+ CD9+ cells (FACS) ([1]; 1-day): 8.13%
CXCR4+ EPCAM+ cells (FACS) ([1]; 1-day): 14.58%
CXCR4+ cells (FACS) ([1]; 1-day): 6%
CXCR4+ C-Kit+ cells (FACS) ([1]; 3-day): 31.56%
CXCR4+ CD9+ cells (FACS) ([1]; 3-day): 24.11%
CXCR4+ EPCAM+ cells (FACS) ([1]; 3-day): 36.67%
CXCR4+ cells (FACS) ([1]; 3-day): 38%
CXCR4+ C-Kit+ cells (FACS) ([1]; 5-day): 55.21%
CXCR4+ CD9+ cells (FACS) ([1]; 5-day): 2.1%
CXCR4+ EPCAM+ cells (FACS) ([1]; 5-day): 54.5%
CXCR4+ cells (FACS) ([1]; 5-day): 65.5%
CXCR4+ cells (FACS) [2]: 92.78%
CXCR4+/C-kit+ cells (FACS) [2]: 92.90%
CXCR4+/CD9+ cells (FACS) [2]: 7.03%
CXCR4+/CD99+ cells (FACS) [2]: 88.78%
CXCR4+/EPCAM cells (FACS) [2]: 87.99%
anterior endoderm markers Cerberus, Otx-1 and Hex genes [3]: significant up regulation
expression of extraembryonic endoderm markers Sox7 and AFP ([3]; up to seven days): time-dependent decrease
Pdx1 expression compared to samples containing no activin A [4]: maintained Pdx1 expression
lineage formed at lower doses of activin A [5]: formation of extraembryonic endoderm
expression of CXCR4, GATA4, Goosecoid, HNF-3beta, and SOX-17 genes (H9 cultures): led to the expression
